# According to patent publication US7799775B2, “Pyrimidine derivatives” (ASKA Pharmaceutical Co., Ltd., priority 2004, dated 2010):
# What was measured:
# human 5-HT3 receptor = biological target: T1, human 5-HT3 receptor (Homo sapiens, UniProt P46098); test: Measurement of affinity to human 5-HT3 receptor (in vitro), [3H]BRL-43694 binding; conditions: test compound 100 nmols/L; [3H]BRL-43694 0.5 nmols/L; HEK-293 cell membrane expressing human 5-HT3 receptor; read-out: Percent Inhibition (%) on Each Receptor's Binding at 10^−7M, 5-HT3
# T1 construct: purchased BIOLINKS K.K; host or cells: HEK-293 cells (membrane preparation)
# T1 sequence (P46098 24-478): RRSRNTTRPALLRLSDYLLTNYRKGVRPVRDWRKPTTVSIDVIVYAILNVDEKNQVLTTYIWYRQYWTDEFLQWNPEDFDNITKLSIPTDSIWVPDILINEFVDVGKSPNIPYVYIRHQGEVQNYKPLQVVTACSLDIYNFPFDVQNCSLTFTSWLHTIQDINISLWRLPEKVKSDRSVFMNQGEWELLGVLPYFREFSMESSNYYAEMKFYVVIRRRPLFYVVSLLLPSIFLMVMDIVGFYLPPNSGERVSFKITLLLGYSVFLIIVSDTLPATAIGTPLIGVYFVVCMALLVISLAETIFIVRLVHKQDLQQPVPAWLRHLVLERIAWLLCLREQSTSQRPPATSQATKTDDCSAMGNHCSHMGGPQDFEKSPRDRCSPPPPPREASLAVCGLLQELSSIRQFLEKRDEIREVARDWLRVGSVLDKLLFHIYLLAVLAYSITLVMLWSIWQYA
# Summary of the method: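 Membranes from HEK-293 cells expressing the receptor were incubated with 0.5 nmol/L radioligand and compound for 60 min at 25 °C in Tris/MgCl2/EDTA buffer, pH 7.5. Bound radioactivity was collected by filtration and counted. Percent inhibition was corrected for non-specific binding defined with 10 μmol/L tropisetron; compounds were tested at 100 nmol/L.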
# human 5-HT1A receptor = biological target: T2, human 5-HT1A receptor (Homo sapiens, UniProt P08908); test: Affinity measurement of the compounds to human 5-HT1A receptor (in vitro), [3H]8-OH-DPAT binding; conditions: test compound 100 nmols/L; [3H]8-OH-DPAT 0.25 nmols/L; CHO cell membrane expressing human 5-HT1A receptor; read-out: Percent Inhibition (%) on Each Receptor's Binding at 10^−7M, 5-HT1A
# T2 construct: purchased Packard Bioscience; host or cells: CHO cells (membrane preparation)
# T2 sequence (P08908 1-422): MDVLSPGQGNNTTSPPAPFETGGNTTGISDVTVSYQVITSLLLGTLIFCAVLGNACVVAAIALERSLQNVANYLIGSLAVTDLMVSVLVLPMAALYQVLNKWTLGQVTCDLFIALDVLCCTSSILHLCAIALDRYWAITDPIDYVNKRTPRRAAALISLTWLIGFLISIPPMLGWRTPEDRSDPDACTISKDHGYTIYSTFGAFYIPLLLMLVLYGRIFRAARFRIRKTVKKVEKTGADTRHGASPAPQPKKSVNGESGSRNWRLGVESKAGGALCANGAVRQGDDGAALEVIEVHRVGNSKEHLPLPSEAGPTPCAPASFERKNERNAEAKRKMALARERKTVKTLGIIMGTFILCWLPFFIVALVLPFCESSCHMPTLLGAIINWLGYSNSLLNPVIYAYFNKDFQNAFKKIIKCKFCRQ
# Summary of the method: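 Membranes from CHO cells expressing human 5-HT1A were incubated 60 min at 27 °C with 0.25 nmol/L [3H]8-OH-DPAT and compound in Tris/MgSO4/EDTA/ascorbate buffer, pH 7.4. Bound radioactivity was collected on PEI-soaked GF/C filters and counted; percent inhibition was corrected for non-specific binding defined with 10 μmol/L 8-OH-DPAT.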
melting point [°C],inhibition at 0.1 µM (human 5-HT3 receptor) [%],inhibition at 0.1 µM (human 5-HT1A receptor) [%],Compound
183.1 to 184.8,,,"Cc1sc2nc(SCCCN3CCN(c4ccccn4)CC3)n(N)c(=O)c2c1C [Example 1-2, 3-amino-5,6-dimethyl-2-[3-(4-pyridin-2-ylpiperazin-1-yl)propylthio]-3H-thieno[2,3-d]pyrimidin-4-one]"
209 to 209.4,52.6,60.8,"Cc1sc2nc(SCCCN3CCN(c4ccccn4)CC3)[nH]c(=O)c2c1C [Example 2-1, 5,6-dimethyl-2-[3-(4-pyridin-2-ylpiperazin-1-yl)propylthio]-3H-thieno[2,3-d]-pyrimidin-4-one]"
190.2 to 191.6,,,"O=c1[nH]c(SCCCN2CCN(c3ccccn3)CC2)nc2sc3c(c12)CCCC3 [Example 2-2, 2-[3-(4-pyridin-2-ylpiperazin-1-yl)propylthio]-5,6,7,8-tetrahydro-3H-benzo[4,5]thieno[2,3-d]pyrimidin-4-one]"
192.6 to 194.4,,,"O=c1[nH]c(CCCCN2CCN(c3ccccn3)CC2)nc2sc3c(c12)CCCC3 [Example 3-10, 2-[4-(4-pyridin-2-ylpiperazin-1-yl)butyl]-5,6,7,8-tetrahydro-3H-benzo[4,5]thieno[2,3-d]pyrimidin-4-one]"

# The next lines start with the compound.
Compound,melting point [°C],inhibition at 0.1 µM (human 5-HT3 receptor) [%],inhibition at 0.1 µM (human 5-HT1A receptor) [%]
"CCOC(=O)c1sc2nc(SCCCN3CCN(c4ccc5ccccc5n4)CC3)[nH]c(=O)c2c1C [Example 2-6, 5-methyl-4-oxo-2-[3-(4-quinolin-2-ylpiperazin-1-yl)propylthio]-3,4-dihydrothieno[2,3-d]pyrimidine-6-carboxylic acid ethyl ester]",200.1 to 201.4,,
"Cc1sc2nc(SCCCN3CCN(c4ccc5ccccc5n4)CC3)[nH]c(=O)c2c1C [Example 2-4, 5,6-dimethyl-2-[3-(4-quinolin-2-yl-piperazin-1-yl)propylthio]-3H-thieno[2,3-d]pyrimidin-4-one]",224.8 to 225.9,,
"Cc1sc2nc(SCCCN3CCN(c4nc5ccccc5s4)CC3)n(N)c(=O)c2c1C [Example 1-6, 3-amino-2-[3-(4-benzothiazol-2-ylpiperazin-1-yl)propylthio]-5,6-dimethyl-3H-thieno[2,3-d]pyrimidin-4-one]",200.5 to 201.2,,
